Source: patent US11078188B2, “Dihydroquinoxaline bromodomain recognition protein inhibitor, preparation method and use thereof” (SHANGHAI INSTITUTE OF MATERIA MEDICA, CHINESE ACADEMY OF …, priority 2017, dated 2021)

Tests used:
BRD4 (I) = BRD4 (I) (Homo sapiens (Human), UniProt O60885); test: Fluorescence anisotropy (FA) binding test on BRD4 (I); conditions: BRD4 (I) 10 nM, fluorescent (+)-JQ1 substrate 5 nM, read-out: BRD4 (1) IC50
Protocol: The binding activity of the compound to BRD4 (I) was tested using a fluorescence anisotropy (FA) method. The principle of FA test is to calculate and analyze the fluorescence polarization values in the horizontal and vertical directions by detecting the change of molecular weight before and after the interaction of fluorescein-labeled small molecules with other molecules. If the equilibrium of the binding between the fluorescently labeled small molecule and macromolecule is established, it will move slowly when excited, and the measured fluorescence polarization value will increase. If the binding between the fluorescently labeled small molecule and the macromolecule is replaced by another ligand, its rotation or flipping speed in the free state will be faster, and the emitted light will be depolarized relative to the plane of the excitation light, and the measured polarized light value will decrease to calculate the fluorescence anisotropy of the sample.
Expression and purification of the BRD4(I) recognition domain: colonies of newly transformed plasmid DNA from E. coli BL21(DE3)-condon plus-RIL cells were cultivated in 50 mL of Terrific Broth medium containing 50 μg/mL kanamycin and 34 μg/mL chloramphenicol at 37° C. overnight (starting culture). The starting culture was then diluted 100-fold in 1 L of fresh TB medium and the cells were grown at 37° C. to an optical density of about 0.8 at OD600 and then the temperature was lowered to 16° C. When the system was equilibrated at 16° C., the optical density at OD600 was approximately 1.2, and protein expression was induced with 0.2 mmol of isopropyl-β-D-thiogalactopyranoside (IPTG) overnight at 16° C. Bacteria were harvested by centrifugation (4000×g, 20 minutes, 4° C.) and stored as a pellet at −80° C. The cells expressing His 6-tagged protein was resuspend in lysis buffer [50 mmol 4-hydroxyethylpiperazineethanesulfonic acid (HEPES), 25° C., pH 7.5, 500 mmol NaCl, 10 mmol imidazole, 5% glycerol and freshly added 0.5 mmol of tris(2-carboxyethyl)phosphine hydrochloride (TCEP) and 1 mmol of phenylmethanesulfonyl fluoride (PMSF)] and lysed at 4° C. using JN 3000PLUS high pressure homogenizer (JNBIO-Guangzhou, China). The lysate was clarified by centrifugation (12,000×g for 1 hour at 4° C.) and applied to a nickel-nitriloacetate agarose column. The column was washed once with 50 mL of wash buffer containing 30 mmol of imidazole. The protein was eluted using imidazole in an elution buffer in a stepwise elution (100-250 mmol imidazole in 50 mmol HEPES, 25° C., pH 7.5, 500 mmol NaCl, 5% glycerol). All fractions were collected and monitored by SDS-polyacrylamide gel electrophoresis (Bio-Rad Criterion TM Precast Gels, 4-12% Bis-Tris, 1.0 mm, from Bio-Rad, CA). After 1 mmol of dithiothreitol (DTT) was added, the eluted proteins were treated with tobacco […] virus (TEV) protease overnight at 4° C. to remove the His6 tag. The protein was concentrated and further purified by size exclusion chromatography on a Superdex 75 16/60 HiLoad gel filtration column. The samples were monitored by SDS-polyacrylamide gel electrophoresis and concentrated to 8-10 mg/mL with gel filtration buffer, 10 mmol Hepes pH 7.5, 500 mM NaCl, 1 mmol DTT, and used for protein binding assays and crystallization.
The fluorogenic substrate was (+)-JQ1 linked to a fluorescent molecule and the working concentration was 5 nM. BRD4 (I) protein had 10 nM of working concentration and the total reaction system was 40 μL. The buffer was 50 mM 4-hydroxyethylpiperazineethanesulfonic acid (HEPES) pH 7.4, 150 mM NaCl, 0.5 mM 3[(3-cholamidopropyl)dimethylammonio]propanesulfonate (CHAPS). […] The final concentration of DMSO was chosen to be 0.2%, taking into account the solubility of the compound and the effect of DMSO on the assay. All measurements were made under these conditions. […]

3A4 = 3A4 (Homo sapiens (Human), UniProt P08684); test: Direct inhibition test (DI test), CYP 3A4; type: in vitro ADME; conditions: human liver microsomes 0.2 mg/ml, 20 min; for Direct inhibition rate (%) 3A4, second value: second of two values a/b (two 3A4 probes midazolam, testosterone; assignment not given)
Chain of 3A4 (P08684 whole entry): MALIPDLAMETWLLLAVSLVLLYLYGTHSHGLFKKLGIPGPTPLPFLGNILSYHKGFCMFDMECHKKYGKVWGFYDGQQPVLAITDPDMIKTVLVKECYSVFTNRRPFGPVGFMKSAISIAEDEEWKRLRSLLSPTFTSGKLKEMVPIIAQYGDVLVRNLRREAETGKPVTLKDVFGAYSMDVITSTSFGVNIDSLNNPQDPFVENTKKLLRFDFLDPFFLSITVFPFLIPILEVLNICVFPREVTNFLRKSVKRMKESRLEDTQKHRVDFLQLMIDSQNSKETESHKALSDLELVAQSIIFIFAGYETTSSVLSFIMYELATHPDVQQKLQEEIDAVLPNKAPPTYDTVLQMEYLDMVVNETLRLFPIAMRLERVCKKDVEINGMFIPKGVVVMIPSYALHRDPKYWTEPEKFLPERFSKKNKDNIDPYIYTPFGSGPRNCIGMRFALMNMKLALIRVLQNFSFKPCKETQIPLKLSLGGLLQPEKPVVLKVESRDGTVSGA
Protocol: The system which was 100 μl of human liver microsomes (final concentration: 0.2 mg/ml) was used for direct inhibition incubation. The system contained NADPH (final concentration: 1 mM), 10 μl compound, positive inhibitor cocktail (ketoconazole, 10 μl, quinidine 10 μl, sulfaphenazole 100 μl, naphthoflavone 10 μl, tranylcypromine 1000 μl), negative control 10 μl DMSO and mixed probe substrate (midazolam 10 μl, testosterone 100 μl, dextromethorphan 10 μl, diclofenac 20 μl, phenacetin 100 μl, mephenytoin 100 μl). The reaction was stopped after the system was incubated for 20 min. The relative activity of the enzyme was calculated by measuring the relative amount of production of the metabolite.

CYP enzyme = test: Mechanistic inhibition test (TDI test); type: in vitro ADME; conditions: human liver microsomes 0.2 mg/ml; mechanism inhibition if kobs greater than 200
Protocol: The system which was 200 μl of human liver microsomes (final concentration: 0.2 mg/ml) was used for mechanistic inhibition incubation. The system contained 10 μl compound, mixed positive inhibitor (Troleandomycin 10 μl, Paroxetine 10 μl, Tienilic acid 10 μM, Furafylline 10 μl) or 10 μl negative control PRO. After NADPH (final concentration: 1 mM) or PBS was added, the system was incubated for 0 min, 5 min, 10 min and 30 min, then NADPH (final concentration: 1 mM) and mixed probe substrate (Midazolam 5 μM, Testosterone 50 μl, Dextromethophan 5 μM, Diclofenac 10 μl, Phenacetin 5 0 μM, S-(+)-mephenytoin 50 μl) were added and incubated for 10 min. Then the reaction was stopped. The test for positive inhibitor CYP2C19 was carried out alone, the inhibitor S-(+)-fluoxetine was 100 μM. The enzyme activity was calculated by measuring the relative production amount of metabolite. kobs was calculated.
HLM Clint (μl/min/mg) refers to the clearance rate of compounds in human liver microsomes having a unit of μl/min/mg; mLM Clint (μl/min/mg) refers to the clearance rate of compounds in mouse liver microsomes having a unit of μl/min/mg; HLM t1/2 (min) refers to the half-life of the compound in human liver microsomes having a unit of minutes; mLM t1/2 (min) refers to the half-life of the compound in mouse liver microsomes having a unit of minutes. TDI means that the mechanism inhibition test of compounds on CYP enzyme evaluates whether the compound has time-dependent inhibition of the enzyme.

**Q.** With `Cc1ccc(-n2nc(C(=O)N3CCN(C)CC3)nc2-c2ccc3c(c2)N(C2CCCC2)[C@H](C)C(=O)N3C)cc1` [Example 6] as the molecule, how does the IC50 (BRD4 (I)) read?
**A.** 6.5 nM

**Q.** And the “Direct inhibition rate (%) 3A4, first value” (3A4; first of two values a/b (two 3A4 probes midazolam, testosterone; assignment not given))?
**A.** 22%

**Q.** And the “Direct inhibition rate (%) 3A4, second value” (3A4)?
**A.** 31%

**Q.** And the TDI (CYP enzyme)?
**A.** no

**Q.** Which results are given for `Cc1ccc(-n2nc(C(=O)N3C[C@@H](C)N[C@@H](C)C3)nc2-c2ccc3c(c2)N(C2CCCC2)[C@H](C)C(=O)N3C)cc1` [Example 12]?
**A.** IC50 (BRD4 (I)): 4.9 nM; Direct inhibition rate (%) 3A4, second value (3A4): 28%; TDI (CYP enzyme): no
